Mutagenic call data for five molecules are collected here from PubChem BioAssay AID1259407 (Chemical Carcinogenesis Research Information System (CCRIS), 2018).

In the data set the test system is CCRIS mutagenicity, Ames/micronucleus/aberration tests. Briefly: CCRIS mutagenicity studies.
Setting [1] is: Test System: AMES SALMONELLA TYPHIMURIUM, Strain/Indicator: TA98, Metabolic Activation: NONE, Method: STANDARD PLATE.
Setting [2] is: Test System: AMES SALMONELLA TYPHIMURIUM, Strain/Indicator: TA100, Metabolic Activation: NONE, Method: PREINCUBATION
Where [3] appears, read: Test System: AMES SALMONELLA TYPHIMURIUM, Strain/Indicator: TA100, Metabolic Activation: NONE, Method: STANDARD PLATE.
Where [4] appears, read: Test System: AMES SALMONELLA TYPHIMURIUM, Strain/Indicator: TA1535, Metabolic Activation: NONE, Method: PREINCUBATION
The mark [5] stands for this setting: Test System: UDS RAT HEPATOCYTES, Strain/Indicator: THY INCORP, Metabolic Activation: NONE, Method: AUTORADIOGRAPHY

Calls of active or inactive are those of the source. How the calls were made is not given here.

Consider `COc1ccccc1/C=C/C=O`, for which the mutagenic call was “inactive; negative” (Test System: AMES SALMONELLA TYPHIMURIUM, Strain/Indicator: TA98, Metabolic Activation: HAMSTER, LIVER, S-9, AROCLOR 1254 (2.5-20%), Method: PREINCUBATION); “inactive; negative” (Test System: AMES SALMONELLA TYPHIMURIUM, Strain/Indicator: TA98, Metabolic Activation: HAMSTER, LIVER, S-9, AROCLOR 1254, Method: STANDARD PLATE); “inactive; negative” under setting [1]; “inactive; negative” (Test System: AMES SALMONELLA TYPHIMURIUM, Strain/Indicator: TA98, Metabolic Activation: RAT, LIVER, S-9, AROCLOR 1254, Method: STANDARD PLATE); “inactive; negative” (Test System: AMES SALMONELLA TYPHIMURIUM, Strain/Indicator: TA100, Metabolic Activation: HAMSTER, LIVER, S-9, AROCLOR 1254 (2.5-20%), Method: PREINCUBATION); “inactive; negative” (Test System: AMES SALMONELLA TYPHIMURIUM, Strain/Indicator: TA100, Metabolic Activation: HAMSTER, LIVER, S-9, AROCLOR 1254, Method: STANDARD PLATE). Moreover, the mutagenic call under setting [2] is “inactive; negative”; the mutagenic call under setting [3] was “inactive; negative”; the mutagenic call (Test System: AMES SALMONELLA TYPHIMURIUM, Strain/Indicator: TA100, Metabolic Activation: RAT, LIVER, S-9, AROCLOR 1254, Method: PREINCUBATION) is “inactive; negative”; the mutagenic call (Test System: AMES SALMONELLA TYPHIMURIUM, Strain/Indicator: TA100, Metabolic Activation: RAT, LIVER, S-9, AROCLOR 1254, Method: STANDARD PLATE) is “inactive; negative”; the mutagenic call (Test System: AMES SALMONELLA TYPHIMURIUM, Strain/Indicator: TA102, Metabolic Activation: HAMSTER, LIVER, S-9, AROCLOR 1254, Method: PREINCUBATION) is “inactive; negative”; the mutagenic call (Test System: AMES SALMONELLA TYPHIMURIUM, Strain/Indicator: TA102, Metabolic Activation: RAT, LIVER, S-9, AROCLOR 1254, Method: PREINCUBATION) is “inactive; negative”. Besides, the mutagenic call by setting is: (Test System: AMES SALMONELLA TYPHIMURIUM, Strain/Indicator: TA1535, Metabolic Activation: HAMSTER, LIVER, S-9, AROCLOR 1254, Method: STANDARD PLATE) “inactive; negative”; under setting [4], “inactive; negative”; (Test System: AMES SALMONELLA TYPHIMURIUM, Strain/Indicator: TA1535, Metabolic Activation: NONE, Method: STANDARD PLATE) “inactive; negative”; (Test System: AMES SALMONELLA TYPHIMURIUM, Strain/Indicator: TA1535, Metabolic Activation: RAT, LIVER, S-9, AROCLOR 1254, Method: STANDARD PLATE) “inactive; negative”; (Test System: AMES SALMONELLA TYPHIMURIUM, Strain/Indicator: TA1537, Metabolic Activation: HAMSTER, LIVER, S-9, AROCLOR 1254, Method: STANDARD PLATE) “inactive; negative”; (Test System: AMES SALMONELLA TYPHIMURIUM, Strain/Indicator: TA1537, Metabolic Activation: NONE, Method: STANDARD PLATE) “inactive; negative”. The mutagenic call reads like this: (Test System: AMES SALMONELLA TYPHIMURIUM, Strain/Indicator: TA1537, Metabolic Activation: RAT, LIVER, S-9, AROCLOR 1254, Method: STANDARD PLATE) “inactive; negative”; (Test System: AMES SALMONELLA TYPHIMURIUM, Strain/Indicator: TA1538, Metabolic Activation: HAMSTER, LIVER, S-9, AROCLOR 1254, Method: STANDARD PLATE) “inactive; negative”; (Test System: AMES SALMONELLA TYPHIMURIUM, Strain/Indicator: TA1538, Metabolic Activation: NONE, Method: STANDARD PLATE) “inactive; negative”; (Test System: AMES SALMONELLA TYPHIMURIUM, Strain/Indicator: TA1538, Metabolic Activation: RAT, LIVER, S-9, AROCLOR 1254, Method: STANDARD PLATE) “inactive; negative”; (Test System: Mouse lymphoma, Strain/Indicator: L5178Y (tk+/tk-), Metabolic Activation: None, Method: Suspension/plate) “active; inconclusive (previous evaluation positive)”; (Test System: Mouse lymphoma, Strain/Indicator: L5178Y (tk+/tk-), Metabolic Activation: Rat, Liver, S-9, Aroclor 1254, Method: Suspension/plate) “active; inconclusive (previous evaluation positive)”.
Take `OCC1=CCN2CC[C@@H](O)[C@@H]12`: the mutagenic call reads like this: (Test System: AMES SALMONELLA TYPHIMURIUM, Strain/Indicator: TA100, Metabolic Activation: HAMSTER, LIVER, S-9, PCB, Method: PREINCUBATION) “inactive; negative”; (Test System: AMES SALMONELLA TYPHIMURIUM, Strain/Indicator: TA100, Metabolic Activation: RAT, LIVER, S-9, PCB, Method: PREINCUBATION) “inactive; negative”; (Test System: UDS HAMSTER HEPATOCYTES, Strain/Indicator: THY INCORP, Metabolic Activation: NONE, Method: AUTORADIOGRAPHY) “inactive; negative”; (Test System: UDS MOUSE HEPATOCYTES, Strain/Indicator: THY INCORP, Metabolic Activation: NONE, Method: AUTORADIOGRAPHY) “inactive; negative”; under setting [5], “inactive; negative”.
For the molecule `CCN(O)CC`, the mutagenic call (Test System: UDS HUMAN LYMPHOCYTES, Strain/Indicator: THY INCORP (NON-S-PHASE), Metabolic Activation: NONE, Method: LIQUID SCINTILLATION COUNTING) is “active; positive”.
For the molecule `Cc1cc(O)c(C(C)(C)C)cc1Sc1cc(C(C)(C)C)c(O)cc1C`, the mutagenic call is “inactive; negative” (Test System: AMES SALMONELLA TYPHIMURIUM, Strain/Indicator: TA98, Metabolic Activation: HAMSTER, LIVER, S-9, AROCLOR 1254 (10%), Method: PREINCUBATION); “inactive; negative” (Test System: AMES SALMONELLA TYPHIMURIUM, Strain/Indicator: TA98, Metabolic Activation: NONE, Method: PREINCUBATION); “inactive; negative” under setting [1]; “inactive; negative” (Test System: AMES SALMONELLA TYPHIMURIUM, Strain/Indicator: TA98, Metabolic Activation: RAT, LIVER, S-9, AROCLOR 1254 (10%), Method: PREINCUBATION); “inactive; negative” (Test System: AMES SALMONELLA TYPHIMURIUM, Strain/Indicator: TA98, Metabolic Activation: S-9, Method: STANDARD PLATE); “inactive; negative” (Test System: AMES SALMONELLA TYPHIMURIUM, Strain/Indicator: TA100, Metabolic Activation: HAMSTER, LIVER, S-9, AROCLOR 1254 (10%), Method: PREINCUBATION). In addition, the mutagenic call is, setting by setting: under setting [2], “inactive; negative”; under setting [3], “inactive; negative”; (Test System: AMES SALMONELLA TYPHIMURIUM, Strain/Indicator: TA100, Metabolic Activation: RAT, LIVER, S-9, AROCLOR 1254 (10%), Method: PREINCUBATION) “inactive; negative”; (Test System: AMES SALMONELLA TYPHIMURIUM, Strain/Indicator: TA100, Metabolic Activation: S-9, Method: STANDARD PLATE) “inactive; negative”; (Test System: AMES SALMONELLA TYPHIMURIUM, Strain/Indicator: TA1535, Metabolic Activation: HAMSTER, LIVER, S-9, AROCLOR 1254 (10%), Method: PREINCUBATION) “inactive; negative”; under setting [4], “inactive; negative”. Besides, the mutagenic call runs as follows: (Test System: AMES SALMONELLA TYPHIMURIUM, Strain/Indicator: TA1535, Metabolic Activation: RAT, LIVER, S-9, AROCLOR 1254 (10%), Method: PREINCUBATION) “inactive; negative”; (Test System: AMES SALMONELLA TYPHIMURIUM, Strain/Indicator: TA1537, Metabolic Activation: HAMSTER, LIVER, S-9, AROCLOR 1254 (10%), Method: PREINCUBATION) “inactive; negative”; (Test System: AMES SALMONELLA TYPHIMURIUM, Strain/Indicator: TA1537, Metabolic Activation: NONE, Method: PREINCUBATION) “inactive; negative”; (Test System: AMES SALMONELLA TYPHIMURIUM, Strain/Indicator: TA1537, Metabolic Activation: RAT, LIVER, S-9, AROCLOR 1254 (10%), Method: PREINCUBATION) “inactive; negative”.
In the case of `CCN(CC)CCNC(=O)c1cc(Cl)c(N)cc1OC`, the mutagenic call reads like this: (Test System: CHINESE HAMSTER V-79, Strain/Indicator: V-79 (HGPRT)/6-THIOGUANINE, Metabolic Activation: NONE) “active; positive”; (Test System: UDS HUMAN HEPATOCYTES, Strain/Indicator: THY INCORP, Metabolic Activation: NONE, Method: AUTORADIOGRAPHY) “inactive; negative”; under setting [5], “inactive; negative”.
